Experimental data: ChEMBL document CHEMBL1201862, “PubChem BioAssay data set” (2004)
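Interpolation was linear, between the two tested concentrations surrounding the appropriate level; five concentrations were tested over 48 hours in 96-well plates. GI50 = concentration required for 50% inhibition of growth.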 Activity calls are given as the source filed them. Rule as the data show it: active = GI50 up to about 1.1 µM and inactive = higher.

Legend:
Assay in all cases: NCI tumour cell line growth inhibition, 48 h
786-0 = system: 786-0
ACHN = system: ACHN
COLO 205 = system: COLO 205
EKVX = system: EKVX
HCT-116 = system: HCT-116
HOP-62 = system: HOP-62
LOX IMVI = system: LOX IMVI
MCF7 = system: MCF7
MOLT-4 = system: MOLT-4
Malme-3M = system: Malme-3M
NCI-H460 = system: NCI-H460
OVCAR-5 = system: OVCAR-5
RPMI-8226 = system: RPMI-8226
SF-295 = system: SF-295
SK-MEL-2 = system: SK-MEL-2
SK-MEL-5 = system: SK-MEL-5
SW-620 = system: SW-620
UACC-257 = system: UACC-257
NCI-H522 = system: NCI-H522
SK-MEL-28 = system: SK-MEL-28

Structure (SMILES) | GI50 (786-0) | GI50 (ACHN) | GI50 (COLO 205) | GI50 (EKVX) | GI50 (HCT-116) | GI50 (HOP-62) | GI50 (LOX IMVI) | GI50 (MCF7) | GI50 (MOLT-4) | GI50 (Malme-3M) | GI50 (NCI-H460) | GI50 (OVCAR-5) | GI50 (RPMI-8226) | GI50 (SF-295) | GI50 (SK-MEL-2) | GI50 (SK-MEL-5) | GI50 (SW-620) | GI50 (UACC-257) | GI50 (NCI-H522) | GI50 (SK-MEL-28)
O=C1NC(=S)NC(=O)C1=Cc1ccc(-c2ccccc2)cc1 | > 100 µM (inactive) | > 100 µM (inactive) | > 100 µM (inactive) | > 100 µM (inactive) | 51.3 µM (inactive) | > 100 µM (inactive) | 69.3 µM (inactive) | 72.8 µM (inactive) | 24.7 µM (inactive) | > 100 µM (inactive) | > 100 µM (inactive) | > 100 µM (inactive) | 66.2 µM (inactive) | > 100 µM (inactive) | > 100 µM (inactive) | > 100 µM (inactive) | > 100 µM (inactive) | > 100 µM (inactive) | – | –
CC[C@@H]1ON(C)[C@H]2CN(C)C(=O)[C@@H]12 | – | > 100 µM (inactive) | > 100 µM (inactive) | – | > 100 µM (inactive) | > 100 µM (inactive) | > 100 µM (inactive) | > 100 µM (inactive) | > 100 µM (inactive) | – | > 100 µM (inactive) | > 100 µM (inactive) | > 100 µM (inactive) | > 100 µM (inactive) | > 100 µM (inactive) | > 100 µM (inactive) | > 100 µM (inactive) | > 100 µM (inactive) | > 100 µM (inactive) | > 100 µM (inactive)
CN1C2CCC1CC(CCNC(c1ccccc1)c1ccccc1)C2 (centres undefined) | 17.5 µM (inactive) | 80.5 µM (inactive) | 11.5 µM (inactive) | 24.9 µM (inactive) | 18.3 µM (inactive) | 19.7 µM (inactive) | 20.2 µM (inactive) | – | 25.4 µM (inactive) | 17.3 µM (inactive) | 83.9 µM (inactive) | > 100 µM (inactive) | 20.2 µM (inactive) | 22.5 µM (inactive) | 16.7 µM (inactive) | 12.9 µM (inactive) | 79.6 µM (inactive) | 16.4 µM (inactive) | 25.2 µM (inactive) | 17.3 µM (inactive)
COCOc1ccc(OC)cc1 | – | – | > 100 µM (inactive) | > 100 µM (inactive) | > 100 µM (inactive) | > 100 µM (inactive) | > 100 µM (inactive) | > 100 µM (inactive) | > 100 µM (inactive) | > 100 µM (inactive) | > 100 µM (inactive) | > 100 µM (inactive) | > 100 µM (inactive) | > 100 µM (inactive) | > 100 µM (inactive) | > 100 µM (inactive) | > 100 µM (inactive) | > 100 µM (inactive) | – | > 100 µM (inactive)
O=C1/C(=C/c2ccc(Cl)cc2)Sc2scc(-c3cccc([N+](=O)[O-])c3)[n+]21 | 2.16 µM (inactive) | 2.49 µM (inactive) | 1.86 µM (inactive) | 4.18 µM (inactive) | 2.06 µM (inactive) | 19.5 µM (inactive) | 3.01 µM (inactive) | 3.91 µM (inactive) | 2.04 µM (inactive) | – | 4.53 µM (inactive) | 10.8 µM (inactive) | 1.39 µM (inactive) | 11.4 µM (inactive) | 12.9 µM (inactive) | 2.61 µM (inactive) | 1.76 µM (inactive) | 4.61 µM (inactive) | 0.44 µM (active) | 2.81 µM (inactive)
COC(=O)C(CCCCNC(=O)CNC(=O)OCc1ccccc1)NC(=O)C(CCCCNC(=O)CNC(=O)OCc1ccccc1)NC(=O)OCc1ccccc1 (centres undefined) | 25 µM (inactive) | > 100 µM (inactive) | – | – | 84.7 µM (inactive) | > 100 µM (inactive) | 87.9 µM (inactive) | 0.0805 µM (active) | 33.4 µM (inactive) | 46.2 µM (inactive) | > 100 µM (inactive) | > 100 µM (inactive) | 20.4 µM (inactive) | – | 19 µM (inactive) | 69.5 µM (inactive) | > 100 µM (inactive) | > 100 µM (inactive) | – | 53.8 µM (inactive)
O=C1OCc2c1cc1cc3c(cc1c2-c1ccc2c(c1)OCO2)OCO3.O=C1OCc2cc3cc4c(cc3c(-c3ccc5c(c3)OCO5)c21)OCO4 | – | – | 5.79 µM (inactive) | – | 2.76 µM (inactive) | 6.31 µM (inactive) | 14.2 µM (inactive) | 15.4 µM (inactive) | 2.31 µM (inactive) | 37.2 µM (inactive) | 5.79 µM (inactive) | 21 µM (inactive) | 4.31 µM (inactive) | 2.41 µM (inactive) | 11.4 µM (inactive) | 4.7 µM (inactive) | 4.51 µM (inactive) | 25.5 µM (inactive) | – | 45.4 µM (inactive)
CCOC(=O)C(C(=O)OCC)c1ccc([N+](=O)[O-])o1 | 6.64 µM (inactive) | 10.2 µM (inactive) | 3.27 µM (inactive) | 18.7 µM (inactive) | 15.6 µM (inactive) | > 50 µM (inactive) | 3.17 µM (inactive) | – | 3.08 µM (inactive) | 6.73 µM (inactive) | 20.3 µM (inactive) | 18.2 µM (inactive) | 6.87 µM (inactive) | 20.6 µM (inactive) | 18.6 µM (inactive) | 17.3 µM (inactive) | 3.39 µM (inactive) | 14.7 µM (inactive) | 1.74 µM (inactive) | 14.1 µM (inactive)
CC(C)n1c(=O)n(-c2ccccc2)n(C(C)(C)C)c1=O | > 100 µM (inactive) | > 100 µM (inactive) | > 100 µM (inactive) | > 100 µM (inactive) | > 100 µM (inactive) | > 100 µM (inactive) | > 100 µM (inactive) | > 100 µM (inactive) | > 100 µM (inactive) | > 100 µM (inactive) | > 100 µM (inactive) | > 100 µM (inactive) | – | > 100 µM (inactive) | > 100 µM (inactive) | > 100 µM (inactive) | > 100 µM (inactive) | > 100 µM (inactive) | – | > 100 µM (inactive)
CC(C)COC(=O)N1N=NC2C3CC(=O)C(O3)C21 (centres undefined) | > 100 µM (inactive) | > 100 µM (inactive) | > 100 µM (inactive) | > 100 µM (inactive) | > 100 µM (inactive) | > 100 µM (inactive) | > 100 µM (inactive) | – | > 100 µM (inactive) | > 100 µM (inactive) | > 100 µM (inactive) | > 100 µM (inactive) | > 100 µM (inactive) | > 100 µM (inactive) | > 100 µM (inactive) | > 100 µM (inactive) | > 100 µM (inactive) | > 100 µM (inactive) | > 100 µM (inactive) | > 100 µM (inactive)
C#CCOCn1cnc2ncnc(Cl)c21 | > 100 µM (inactive) | > 100 µM (inactive) | > 100 µM (inactive) | > 100 µM (inactive) | > 100 µM (inactive) | > 100 µM (inactive) | > 100 µM (inactive) | – | > 100 µM (inactive) | > 100 µM (inactive) | > 100 µM (inactive) | > 100 µM (inactive) | > 100 µM (inactive) | > 100 µM (inactive) | > 100 µM (inactive) | > 100 µM (inactive) | > 100 µM (inactive) | > 100 µM (inactive) | > 100 µM (inactive) | > 100 µM (inactive)
c1ccc(C2N=C(c3ccccn3)C(c3ccccn3)=NC2c2ccccc2)cc1 (centres undefined) | > 100 µM (inactive) | > 100 µM (inactive) | > 100 µM (inactive) | > 100 µM (inactive) | > 100 µM (inactive) | 20 µM (inactive) | > 100 µM (inactive) | – | > 100 µM (inactive) | > 100 µM (inactive) | > 100 µM (inactive) | > 100 µM (inactive) | > 100 µM (inactive) | > 100 µM (inactive) | > 100 µM (inactive) | > 100 µM (inactive) | > 100 µM (inactive) | > 100 µM (inactive) | > 100 µM (inactive) | > 100 µM (inactive)
C=C1C[C@@H]2CC[C@@]34CC5O[C@H]6C(O[C@H]7CC[C@H](CC(=O)O[C@@H]8[C@@H](C)[C@@H]9O[C@@H]%10C[C@]%11(C[C@@H]%12O[C@]%13(C[C@H](C)[C@@H]%14O[C@@H]%15CC(C(COC(C)=O)OC(C)=O)O[C@@H]%15C[C@@H]%14O%13)C[C@H](C)[C@@H]%12O%11)O[C@@H]%10C[C@@H]9O[C@H]8CC8O[C@@H](CC[C@@H]1O2)C[C@@H](C)C8(O)CO)O[C@@H]7[C@@H]6O3)[C@H]5O4 (some centres undefined) | 0.392 µM (active) | 0.708 µM (active) | 0.311 µM (active) | > 0.923 µM (active) | 0.292 µM (active) | > 1 µM (active) | 0.432 µM (active) | 0.249 µM (active) | > 0.548 µM (active) | – | 0.258 µM (active) | > 1 µM (active) | 0.413 µM (active) | 0.297 µM (active) | 0.721 µM (active) | 0.243 µM (active) | 0.6 µM (active) | 0.0716 µM (active) | 0.137 µM (active) | > 1 µM (active)
COc1cc(C2c3cc4c(cc3[C@@H](Nc3ccc(F)cc3)C3COC[C@H]23)OCO4)cc(OC)c1O (some centres undefined) | 1.75 µM (inactive) | 1.03 µM (active) | 4.73 µM (inactive) | 9.91 µM (inactive) | 2.07 µM (inactive) | 2.45 µM (inactive) | – | 1.1 µM (active) | 0.118 µM (active) | – | 0.152 µM (active) | 3.62 µM (inactive) | 1.49 µM (inactive) | 0.877 µM (active) | – | 3.43 µM (inactive) | 3.15 µM (inactive) | 7.82 µM (inactive) | 3.22 µM (inactive) | 5 µM (inactive)
N/C(=N\O)N/N=C/c1ccc2c(c1)OCCO2 | – | – | 7.28 µM (inactive) | 9.27 µM (inactive) | 21.7 µM (inactive) | 19.8 µM (inactive) | 8.09 µM (inactive) | 22.1 µM (inactive) | 19.1 µM (inactive) | – | 7.55 µM (inactive) | 4.72 µM (inactive) | 16.8 µM (inactive) | 6.59 µM (inactive) | 9.08 µM (inactive) | 7.21 µM (inactive) | 28.2 µM (inactive) | 18.6 µM (inactive) | 6.65 µM (inactive) | 21.4 µM (inactive)
